Experimental data: patent publication US20050075375A1 (priority 2003, published 2005)

Tested on: monocistronic NK5.1 HCV replicon in Huh7 cells
Test: HCV replicon assay, monocistronic replicon cell line
Type: cell-based, hepatitis C virus
Conditions: Hepatitis C virus, Huh-7; monocistronic NK5.1 HCV replicon in Huh7 cells; median value; read-out: Mono EC50 Median
How it was run: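 EC50 derives from the HCV RNA/GAPDH RNA ratio by one-step TaqMan RT-PCR, relative to DMSO-only wells. Compounds (six half-log concentrations, 0.6% DMSO) were incubated 3 days at 37 °C with NK5.1 monocistronic replicon Huh7 cells plated a day earlier.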

Q: For `Cc1ccccc1-c1nnc(-c2ccccc2F)o1` [Compound 313, 2-(2-Fluoro-phenyl)-5-o-tolyl-[1,3,4]oxadiazole], which EC50 is on record?
A: > 32 µM

Q: With `Cc1ccccc1-c1nnc(-c2ccccc2C(F)(F)F)o1` [Compound 314, 2-o-Tolyl-5-(2-trifluoromethyl-phenyl)-[1,3,4]oxadiazole] as the molecule, how does the EC50 read?
A: 20 µM

Q: How did the EC50 turn out when `Cc1ccccc1-c1nnc(-c2ccccc2[N+](=O)[O-])o1` [Compound 315, 2-(2-Nitro-phenyl)-5-o-tolyl-[1,3,4]oxadiazole] was run?
A: > 32 µM

Q: How did the EC50 turn out when `Cc1ccccc1-c1nnc(-c2c(Cl)cccc2Cl)o1` [Compound 316, 2-(2,6-Dichloro-phenyl)-5-o-tolyl-[1,3,4]oxadiazole] was run?
A: > 32 µM

Q: `Cc1ccccc1-c1nnc(-c2cccs2)o1` [Compound 317, 2-Thiophen-2-yl-5-o-tolyl-[1,3,4]oxadiazole] was tested. Which EC50 did it give?
A: > 32 µM

Q: How did the EC50 turn out when `Oc1ccccc1-c1nnc(-c2ccccc2)o1` [Compound 318, 2-(5-Phenyl-[1,3,4]oxadiazol-2-yl)-phenol] was run?
A: 14 µM

Q: `Oc1ccccc1-c1nnc(-c2ccccc2F)o1` [Compound 319, 2-[5-(2-Fluoro-phenyl)-[1,3,4]oxadiazol-2-yl]-phenol] was tested. Which EC50 did it give?
A: 18 µM

Q: How did the EC50 turn out when `Oc1ccccc1-c1nnc(-c2ccccc2C(F)(F)F)o1` [Compound 320, 2-[5-(2-Trifluoromethyl-phenyl)-[1,3,4]oxadiazol-2-yl]-phenol] was run?
A: > 32 µM

Q: For `O=[N+]([O-])c1ccccc1-c1nnc(-c2ccccc2O)o1` [Compound 321, 2-[5-(2-Nitro-phenyl)-[1,3,4]oxadiazol-2-yl]-phenol], which EC50 is on record?
A: > 32 µM

Q: `Oc1ccccc1-c1nnc(-c2c(Cl)cccc2Cl)o1` [Compound 322, 2-[5-(2,6-Dichloro-phenyl)-[1,3,4]oxadiazol-2-yl]-phenol] was tested. Which EC50 did it give?
A: 12 µM

Q: With `Oc1ccccc1-c1nnc(-c2ccco2)o1` [Compound 323, 2-(5-Furan-2-yl-[1,3,4]oxadiazol-2-yl)-phenol] as the molecule, how does the EC50 read?
A: > 32 µM

Q: With `Oc1ccccc1-c1nnc(-c2cccs2)o1` [Compound 324, 2-(5-Thiophen-2-yl-[1,3,4]oxadiazol-2-yl)-phenol] as the molecule, how does the EC50 read?
A: > 32 µM

Q: How did the EC50 turn out when `COc1ccccc1-c1nnc(-c2ccccc2)o1` [Compound 325, 2-(2-Methoxy-phenyl)-5-phenyl-[1,3,4]oxadiazole] was run?
A: > 32 µM

Q: With `COc1ccccc1-c1nnc(-c2ccccc2F)o1` [Compound 326, 2-(2-Fluoro-phenyl)-5-(2-methoxy-phenyl)-[1,3,4]oxadiazole] as the molecule, how does the EC50 read?
A: > 32 µM

Q: Which EC50 does the source give for `COc1ccccc1-c1nnc(-c2ccccc2C(F)(F)F)o1` [Compound 327, 2-(2-Methoxy-phenyl)-5-(2-trifluoromethyl-phenyl)-[1,3,4]oxadiazole] here?
A: 25 µM

Q: Which EC50 does the source give for `COc1ccccc1-c1nnc(-c2ccccc2[N+](=O)[O-])o1` [Compound 328, 2-(2-Methoxy-phenyl)-5-(2-nitro-phenyl)-[1,3,4]oxadiazole] here?
A: > 32 µM

Q: `COc1ccccc1-c1nnc(-c2c(Cl)cccc2Cl)o1` [Compound 329, 2-(2,6-Dichloro-phenyl)-5-(2-methoxy-phenyl)-[1,3,4]oxadiazole] was tested. Which EC50 did it give?
A: > 32 µM

Q: `COc1ccccc1-c1nnc(-c2ccco2)o1` [Compound 330, 2-Furan-2-yl-5-(2-methoxy-phenyl)-[1,3,4]oxadiazole] was tested. Which EC50 did it give?
A: > 32 µM

Q: With `COc1ccccc1-c1nnc(-c2cccs2)o1` [Compound 331, 2-(2-Methoxy-phenyl)-5-thiophen-2-yl-[1,3,4]oxadiazole] as the molecule, how does the EC50 read?
A: > 32 µM

Q: Which EC50 does the source give for `Fc1ccccc1-c1nnc(-c2ccccc2)o1` [Compound 332, 2-(2-Fluoro-phenyl)-5-phenyl-[1,3,4]oxadiazole] here?
A: > 32 µM

Q: Which EC50 does the source give for `Fc1ccccc1-c1nnc(-c2ccccc2F)o1` [Compound 333, 2,5-Bis-(2-fluoro-phenyl)-[1,3,4]oxadiazole] here?
A: > 32 µM

Q: Which EC50 does the source give for `Fc1ccccc1-c1nnc(-c2ccccc2C(F)(F)F)o1` [Compound 334, 2-(2-Fluoro-phenyl)-5-(2-trifluoromethyl-phenyl)-[1,3,4]oxadiazole] here?
A: > 32 µM

Q: For `Fc1ccccc1-c1nnc(-c2c(Cl)cccc2Cl)o1` [Compound 335, 2-(2,6-Dichloro-phenyl)-5-(2-fluoro-phenyl)-[1,3,4]oxadiazole], which EC50 is on record?
A: > 32 µM

Q: How did the EC50 turn out when `Fc1ccccc1-c1nnc(-c2ccco2)o1` [Compound 336, 2-(2-Fluoro-phenyl)-5-furan-2-yl-[1,3,4]oxadiazole] was run?
A: > 32 µM

Q: How did the EC50 turn out when `Fc1ccccc1-c1nnc(-c2cccs2)o1` [Compound 337, 2-(2-Fluoro-phenyl)-5-thiophen-2-yl-[1,3,4]oxadiazole] was run?
A: > 32 µM

Q: With `Oc1ccc2ccccc2c1-c1nnc(-c2ncccc2C(F)(F)F)o1` [Compound 338, 1-[5-(3-Trifluoromethyl-pyridin-2-yl)-[1,3,4]oxadiazol-2-yl]-naphthalen-2-ol] as the molecule, how does the EC50 read?
A: > 19 µM

Q: How did the EC50 turn out when `Cc1ccccc1-c1nnc(-c2ccccn2)o1` [Compound 339, 2-(5-o-Tolyl-[1,3,4]oxadiazol-2-yl)-pyridine] was run?
A: > 32 µM

Q: `Cc1ccccc1-c1nnc(-c2ncccc2C(F)(F)F)o1` [Compound 340, 2-(5-o-Tolyl-[1,3,4]oxadiazol-2-yl)-3-trifluoromethyl-pyridine] was tested. Which EC50 did it give?
A: > 32 µM

Q: `Cc1ccccc1-c1nnc(-c2ncc(C(F)(F)F)cc2Cl)o1` [Compound 341, 3-Chloro-2-(5-o-tolyl-[1,3,4]oxadiazol-2-yl)-5-trifluoromethyl-pyridine] was tested. Which EC50 did it give?
A: 20 µM

Q: `Oc1ccccc1-c1nnc(-c2ncccc2C(F)(F)F)o1` [Compound 342, 2-[5-(3-Trifluoromethyl-pyridin-2-yl)-[1,3,4]oxadiazol-2-yl]-phenol] was tested. Which EC50 did it give?
A: > 32 µM

Q: `Oc1ccccc1-c1nnc(-c2ncc(C(F)(F)F)cc2Cl)o1` [Compound 343, 2-[5-(3-Chloro-5-trifluoromethyl-pyridin-2-yl)-[1,3,4]oxadiazol-2-yl]-phenol] was tested. Which EC50 did it give?
A: 17 µM

Q: With `COc1ccccc1-c1nnc(-c2ccccn2)o1` [Compound 344, 2-[5-(2-Methoxy-phenyl)-[1,3,4]oxadiazol-2-yl]-pyridine] as the molecule, how does the EC50 read?
A: > 32 µM

Q: For `COc1ccccc1-c1nnc(-c2ncccc2C(F)(F)F)o1` [Compound 345], which EC50 is on record?
A: 8.3 µM

Q: Which EC50 does the source give for `COc1ccccc1-c1nnc(-c2ncc(C(F)(F)F)cc2Cl)o1` [Compound 346, 3-Chloro-2-[5-(2-methoxy-phenyl)-[1,3,4]oxadiazol-2-yl]-5-trifluoromethyl-pyridine] here?
A: > 32 µM

Q: For `Fc1ccccc1-c1nnc(-c2ccccn2)o1` [Compound 347, 2-[5-(2-Fluoro-phenyl)-[1,3,4]oxadiazol-2-yl]-pyridine], which EC50 is on record?
A: > 32 µM

Q: Which EC50 does the source give for `Fc1ccccc1-c1nnc(-c2ncccc2C(F)(F)F)o1` [Compound 348, 2-[5-(2-Fluoro-phenyl)-[1,3,4]oxadiazol-2-yl]-3-trifluoromethyl-pyridine] here?
A: > 32 µM

Q: For `Fc1ccccc1-c1nnc(-c2ncc(C(F)(F)F)cc2Cl)o1` [Compound 349, 3-Chloro-2-[5-(2-fluoro-phenyl)-[1,3,4]oxadiazol-2-yl]-5-trifluoromethyl-pyridine], which EC50 is on record?
A: > 32 µM

Q: How did the EC50 turn out when `c1ccc(-c2n[nH]c(-c3cccc4ccccc34)n2)nc1` [Compound 350, 2-(5-Naphthalen-1-yl-1H-[1,2,4]triazol-3-yl)-pyridine] was run?
A: > 19 µM

Q: For `CC(C)(C)c1ccc(O)c(-c2nc(-c3ccccn3)n[nH]2)c1` [Compound 351, 4-tert-Butyl-2-(5-pyridin-2-yl-2H-[1,2,4]triazol-3-yl)-phenol], which EC50 is on record?
A: 8.6 µM

Q: `O=[N+]([O-])c1ccc(O)c(-c2nc(-c3ccccn3)n[nH]2)c1` [Compound 352, 4-Nitro-2-(5-pyridin-2-yl-2H-[1,2,4]triazol-3-yl)-phenol] was tested. Which EC50 did it give?
A: 14 µM

Q: For `Oc1ccc(F)cc1-c1nc(-c2ccccn2)n[nH]1` [Compound 353, 4-Fluoro-2-(5-pyridin-2-yl-2H-[1,2,4]triazol-3-yl)-phenol], which EC50 is on record?
A: 7.1 µM

Q: With `Oc1ccc(Cl)cc1-c1nc(-c2ccccn2)n[nH]1` [Compound 354, 4-Chloro-2-(5-pyridin-2-yl-2H-[1,2,4]triazol-3-yl)-phenol] as the molecule, how does the EC50 read?
A: 4.8 µM

Q: For `CCOc1cccc(-c2nc(-c3ccccn3)n[nH]2)c1O` [Compound 355, 6-Ethoxy-2-(5-pyridin-2-yl-2H-[1,2,4]triazol-3-yl)-phenol], which EC50 is on record?
A: > 19 µM

Q: With `Oc1cc(OCc2ccccc2)ccc1-c1nc(-c2ccccn2)n[nH]1` [Compound 356, 5-Benzyloxy-2-(5-pyridin-2-yl-2H-[1,2,4]triazol-3-yl)-phenol] as the molecule, how does the EC50 read?
A: > 19 µM

Q: For `Fc1cc(-c2nc(-c3ccccn3)n[nH]2)ccc1-c1ccccc1` [Compound 357, 2-[5-(2-Fluoro-biphenyl-4-yl)-1H-[1,2,4]triazol-3-yl]-pyridine], which EC50 is on record?
A: 7.1 µM

Q: With `Oc1ccc(Br)cc1-c1nc(-c2ccccn2)n[nH]1` [Compound 358, 4-Bromo-2-(5-pyridin-2-yl-2H-[1,2,4]triazol-3-yl)-phenol] as the molecule, how does the EC50 read?
A: 4.3 µM

Q: For `Cc1ccc(O)c(-c2nc(-c3ccccn3)n[nH]2)c1` [Compound 359, 4-Methyl-2-(5-pyridin-2-yl-2H-[1,2,4]triazol-3-yl)-phenol], which EC50 is on record?
A: > 19 µM

Q: For `COc1ccc(O)c(-c2nc(-c3ccccn3)n[nH]2)c1` [Compound 360, 4-Methoxy-2-(5-pyridin-2-yl-2H-[1,2,4]triazol-3-yl)-phenol], which EC50 is on record?
A: 5.4 µM

Q: How did the EC50 turn out when `Oc1ccccc1-c1nc(-c2ccccn2)n[nH]1` [Compound 361, 2-(5-pyridin-2-yl-2H-[1,2,4]triazol-3-yl)-phenol] was run?
A: > 19 µM

Q: How did the EC50 turn out when `COc1cccc(-c2nc(-c3ccccn3)n[nH]2)c1O` [Compound 362, 6-Methoxy-2-(5-pyridin-2-yl-2H-[1,2,4]triazol-3-yl)-phenol] was run?
A: > 19 µM

Q: With `COc1ccc(-c2nc(-c3ccccn3)n[nH]2)c(O)c1` [Compound 363, 5-Methoxy-2-(5-pyridin-2-yl-2H-[1,2,4]triazol-3-yl)-phenol] as the molecule, how does the EC50 read?
A: > 19 µM

Q: `O=[N+]([O-])c1cccc(-c2nc(-c3ccccn3)n[nH]2)c1` [Compound 364, 2-[5-(3-Nitro-phenyl)-1H-[1,2,4]triazol-3-yl]-pyridine] was tested. Which EC50 did it give?
A: > 32 µM

Q: For `CCN(CC)c1ccc(-c2nc(-c3ccccn3)n[nH]2)c(O)c1` [Compound 365, 5-Diethylamino-2-(5-pyridin-2-yl-2H-[1,2,4]triazol-3-yl)-phenol], which EC50 is on record?
A: > 32 µM
